According to ChEMBL document CHEMBL1833860 (Bioorg Med Chem Lett, 2011):
In brackets after ≈: the same amount, converted by molar mass.

Experiments:
[1] = Oral bioavailability in rat at 3 mg/kg; format: ADME, organism-based; conditions: in vivo
[2] = Half life in rat at 1 mg/kg, iv and 3 mg/kg, po; format: ADME, organism-based; conditions: in vivo
[3] = Volume of distribution at steady state in rat at 1 mg/kg, iv and 3 mg/kg, po; format: ADME, organism-based; conditions: in vivo, read-out: Vdss
[4] = Clearance in rat at 1 mg/kg, iv and 3 mg/kg, po; format: ADME, organism-based; conditions: in vivo
[5] = Distribution coefficient, log D of compound; format: physicochemical; conditions: octanol/water
[6] = Aqueous solubility of compound in fed state simulated intestinal fluid at pH 6.5; format: physicochemical
[7] = Dissociation constant, pKa of the compound; format: physicochemical

| bioavailability [1] [%] | half-life [2] [min] | Vd [3] [L/kg] | clearance [4] [mL/min/kg] | logD [5] | solubility [6] [µg/mL] | pKa [7] | Compound |
| --- | --- | --- | --- | --- | --- | --- | --- |
| 10 | 138 | 3.9 | 45 | – | – | – | COc1ccc(Nc2nc(N[C@@H]3CCOC[C@@H]3N)ncc2C(N)=O)cc1 |
| 30 | 252 | 4.1 | 16 | 0.9 | 420 (≈ 1230 µM) | – | Cc1ccc(Nc2nc(N[C@@H]3CCOC[C@@H]3N)ncc2C(N)=O)cc1 |
| – | – | – | – | – | – | 7.9 | Cc1cccc(Nc2nc(N[C@@H]3CC(F)(F)CC[C@@H]3N)ncc2C(N)=O)c1 (racemic) |
| – | – | – | – | – | – | 9.4 | Cc1cccc(Nc2nc(N[C@@H]3CCCC[C@@H]3N)ncc2C(N)=O)c1 |
| 14 | 114 | 4 | 32 | – | – | 8.1 | Cc1cccc(Nc2nc(N[C@@H]3CCOC[C@@H]3N)ncc2C(N)=O)c1 |
